One assay concerns the target human orexin-2 receptor (Homo sapiens (Human), UniProt O43614). Description: In vitro assay: intracellular calcium measurements (FLIPR), antagonistic activity. Type of assay: cell-based. As to conditions: read-out: IC50 OX2. How it is done:
(§1) In Vitro Assay: Intracellular Calcium Measurements:
(§2) Chinese hamster ovary (CHO) cells expressing the human orexin-1 receptor and the human orexin-2 receptor, respectively, are grown in culture medium (Ham F-12 with L-Glutamine) containing 300 µg/ml G418, 100 U/ml penicillin, 100 µg/ml streptomycin and 10% heat inactivated fetal calf serum (FCS). The cells are seeded at 20,000 cells/well into 384-well black clear bottom sterile plates (Greiner). The seeded plates are incubated overnight at 37° C. in 5% CO2.
(§3) Fluorescence is measured for each well at 1 second intervals, and the height of each fluorescence peak is compared to the height of the fluorescence peak induced by 3 nM orexin-A with vehicle in place of antagonist. […] Optimized conditions were achieved by adjustment of pipetting speed and cell splitting regime. The calculated IC50 values may fluctuate depending on the daily cellular assay performance. Fluctuations of this kind are known to those skilled in the art.

The target of the next assay is human orexin-1 receptor (Homo sapiens (Human), UniProt O43613). Described as above. As to conditions: CHO cells, 3 nM orexin-A, marked values are geometric means of n = 2-6, read-out: IC50 OX1. Type of assay: cell-based. The protocol:
as §1, §2, §3

Where [1] appears, read: CHO cells, 3 nM orexin-A, compound incubation time of 10 min, marked values are geometric means of n = 2-6.
[2] abbreviates: compound incubation time of 10 min.
Where [3] appears, read: CHO cells, 3 nM orexin-A, compound incubation 120 min, marked values are geometric means of n = 2-6.

This passage reports IC50 results from patent publication US9242970B2 (ACTELION PHARMACEUTICALS LTD., priority 2010, dated 2016).

SMILES strings stand for the structures. Read-outs that look alike come from different tables or passages of the source.

human orexin-2 receptor, sequence (O43614 whole entry): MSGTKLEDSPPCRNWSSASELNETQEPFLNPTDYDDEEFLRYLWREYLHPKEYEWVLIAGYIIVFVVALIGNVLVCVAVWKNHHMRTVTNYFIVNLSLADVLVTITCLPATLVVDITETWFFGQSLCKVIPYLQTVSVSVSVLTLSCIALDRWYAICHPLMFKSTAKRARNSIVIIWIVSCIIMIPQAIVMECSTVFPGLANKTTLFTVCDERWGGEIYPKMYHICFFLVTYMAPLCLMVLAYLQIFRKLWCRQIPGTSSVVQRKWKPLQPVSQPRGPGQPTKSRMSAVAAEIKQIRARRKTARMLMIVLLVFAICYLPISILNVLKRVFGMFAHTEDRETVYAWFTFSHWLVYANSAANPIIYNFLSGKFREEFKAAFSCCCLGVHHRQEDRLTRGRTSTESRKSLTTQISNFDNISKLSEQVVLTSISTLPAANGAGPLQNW
human orexin-1 receptor, sequence (O43613 whole entry): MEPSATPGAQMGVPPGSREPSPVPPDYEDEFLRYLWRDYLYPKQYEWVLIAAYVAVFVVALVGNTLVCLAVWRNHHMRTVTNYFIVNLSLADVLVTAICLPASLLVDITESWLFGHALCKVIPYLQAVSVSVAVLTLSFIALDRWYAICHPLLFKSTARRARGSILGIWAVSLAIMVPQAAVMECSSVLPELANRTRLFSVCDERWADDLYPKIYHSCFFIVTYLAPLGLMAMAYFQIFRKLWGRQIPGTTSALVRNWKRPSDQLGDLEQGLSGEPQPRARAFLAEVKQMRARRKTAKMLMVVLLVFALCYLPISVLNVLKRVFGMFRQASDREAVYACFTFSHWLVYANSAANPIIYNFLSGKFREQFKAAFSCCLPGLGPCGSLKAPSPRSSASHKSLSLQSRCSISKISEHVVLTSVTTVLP

What is called IC50 is the concentration that gives 50% inhibition. With `COc1cccc(OC)c1[C@@H]1C[C@H](OC)C(=O)N1Cc1ccc(OC(F)(F)F)cc1` (racemic) [Example 254, rac-(3S*,5S*)-5-(2,6-dimethoxyphenyl)-3-methoxy-1-(4-(trifluoromethoxy)benzyl)pyrrolidin-2-one], the results for the 50% inhibitory concentration (IC50) on human orexin-2 receptor (setting [1]) and at human orexin-1 receptor (setting [2]) were 168 nM and 191 nM, respectively.

On to `COc1cccc(OC)c1[C@@H]1C[C@@H](Cl)C(=O)N1Cc1ccc(OC(F)(F)F)cc1` (racemic) [Example 257, rac-(3R*,5S*)-3-chloro-5-(2,6-dimethoxyphenyl)-1-(4-(trifluoromethoxy)benzyl)pyrrolidin-2-one], for which the figures for the IC50 on human orexin-2 receptor (setting [1]) and at human orexin-1 receptor (setting [2]) were 563 nM and 177 nM, respectively.

Take `COc1cccc(OC)c1[C@@H]1C[C@H](Cl)C(=O)N1Cc1ccc(OC(F)(F)F)cc1` (racemic) [Example 261, rac-(3S*,5S*)-3-chloro-5-(2,6-dimethoxyphenyl)-1-(4-(trifluoromethoxy)benzyl)pyrrolidin-2-one]: the IC50 at human orexin-2 receptor (setting [1]) came out at 41 nM; on human orexin-1 receptor (setting [2]) it was 65 nM.

With `COc1cccc(OC)c1[C@@H]1C[C@@H](OC)C(=O)N1Cc1ccc(OC(F)(F)F)cc1` (racemic) [Example 262, rac-(3R*,5S*)-5-(2,6-dimethoxyphenyl)-3-methoxy-1-(4-(trifluoromethoxy)benzyl)pyrrolidin-2-one], the figures for the IC50 on human orexin-2 receptor (setting [1]) and on human orexin-1 receptor (setting [2]) were 6940 nM and 3380 nM, respectively.

Consider `CC[C@H]1C[C@@H](c2c(OC)cccc2OC)N(Cc2ccc(OC(F)(F)F)cc2)C1=O` (racemic) [Example 263, rac-(3S*,5S*)-5-(2,6-dimethoxyphenyl)-3-ethyl-1-(4-(trifluoromethoxy)benzyl)pyrrolidin-2-one], for which the IC50 was found to be 3610 nM on human orexin-2 receptor (setting [1]) and 619 nM on human orexin-1 receptor (setting [2]).

Take `O=C1[C@H](O)C[C@@H](c2cccc3c2OCCO3)N1Cc1ccc(OC(F)(F)F)cc1` (racemic) [Example 295, rac-(3R*,5S*)-5-(2,3-dihydrobenzo[b][1,4]dioxin-5-yl)-3-hydroxy-1-(4-(trifluoromethoxy)benzyl)pyrrolidin-2-one]: the IC50 at human orexin-2 receptor (setting [3]) turned out to be 5010 nM; on human orexin-1 receptor (compound incubation 120 min) it was 3970 nM.

In the case of `COc1ccccc1[C@@H]1C[C@H](F)C(=O)N1Cc1ccc(OC(F)(F)F)cc1` (racemic) [Example 297, rac-(3S*,5S*)-3-fluoro-5-(2-methoxyphenyl)-1-(4-(trifluoromethoxy)benzyl)pyrrolidin-2-one], the half-inhibitory concentration (IC50) came out at 568 nM on human orexin-2 receptor (setting [3]) and 1050 nM on human orexin-1 receptor (compound incubation 120 min).

Turning to `COc1ccccc1[C@@H]1C[C@H](Cl)C(=O)N1Cc1ccc(OC(F)(F)F)cc1` (racemic) [Example 298, rac-(3S*,5S*)-3-chloro-5-(2-methoxyphenyl)-1-(4-(trifluoromethoxy)benzyl)pyrrolidin-2-one], the results for the IC50 on human orexin-2 receptor (setting [3]) and on human orexin-1 receptor (compound incubation 120 min) were 901 nM and 1630 nM, respectively.

As to `CCOc1ccccc1[C@@H]1C[C@@H](O)C(=O)N1Cc1ccc(OC(F)(F)F)cc1` (racemic) [Example 299, rac-(3R*,5S*)-5-(2-ethoxyphenyl)-3-hydroxy-1-(4-(trifluoromethoxy)benzyl)pyrrolidin-2-one], the values for the IC50 on human orexin-2 receptor (setting [3]) and on human orexin-1 receptor (compound incubation 120 min) were 170 nM and 1860 nM, respectively.

In the case of `COc1cccc(F)c1[C@@H]1C[C@H](F)C(=O)N1Cc1ccc(OC(F)(F)F)cc1` (racemic) [Example 301, rac-(3S*,5S*)-3-fluoro-5-(2-fluoro-6-methoxyphenyl)-1-(4-(trifluoromethoxy)benzyl)pyrrolidin-2-one], the IC50 on human orexin-2 receptor (setting [3]) was 66 nM; at human orexin-1 receptor (compound incubation 120 min) it was 1700 nM.

Regarding `COc1cccc(Cl)c1[C@@H]1C[C@H](F)C(=O)N1Cc1ccc(OC(F)(F)F)cc1` (racemic) [Example 302, rac-(3S*,5S*)-5-(2-chloro-6-methoxyphenyl)-3-fluoro-1-(4-(trifluoromethoxy)benzyl)pyrrolidin-2-one], the IC50 on human orexin-2 receptor (setting [3]) stood at 103 nM; on human orexin-1 receptor (compound incubation 120 min) it was 1380 nM.

As for `CCOc1ccccc1[C@@H]1C[C@H](Cl)C(=O)N1Cc1ccc(OC(F)(F)F)cc1` (racemic) [Example 304, rac-(3S*,5S*)-3-chloro-5-(2-ethoxyphenyl-1-(4-(trifluoromethoxy)benzyl)pyrrolidin-2-one], the IC50 was found to be 129 nM on human orexin-2 receptor (setting [3]) and 615 nM on human orexin-1 receptor (compound incubation 120 min).

On to `COc1cccc(F)c1[C@@H]1C[C@H](Cl)C(=O)N1Cc1ccc(OC(F)(F)F)cc1` (racemic) [Example 305, rac-(3S*,5S*)-3-chloro-5-(2-fluoro-6-methoxyphenyl)-1-(4-(trifluoromethoxy)benzyl)pyrrolidin-2-one], for which the IC50 on human orexin-2 receptor (setting [3]) came to 96 nM; on human orexin-1 receptor (compound incubation 120 min), 396 nM.

As for `COc1cccc(Cl)c1[C@@H]1C[C@H](Cl)C(=O)N1Cc1ccc(OC(F)(F)F)cc1` (racemic) [Example 306, rac-(3S*,5S*)-3-chloro-5-(2-chloro-6-methoxyphenyl)-1-(4-(trifluoromethoxy)benzyl)pyrrolidin-2-one], the IC50 on human orexin-2 receptor (setting [3]) worked out at 108 nM; on human orexin-1 receptor (compound incubation 120 min), 740 nM.

For the molecule `COc1cccc(C)c1[C@@H]1C[C@@H](O)C(=O)N1Cc1ccc(OC(F)(F)F)cc1` (racemic) [Example 309, rac-(3R*,5S*)-3-hydroxy-5-(2-methoxy-6-methylphenyl)-1-(4-(trifluoromethoxy)benzyl)pyrrolidin-2-one], the values for the IC50 on human orexin-2 receptor (setting [3]) and on human orexin-1 receptor (compound incubation 120 min) were 887 nM and 2220 nM, respectively.

In the case of `COc1ccc2ccccc2c1[C@@H]1C[C@@H](O)C(=O)N1Cc1ccc(OC(F)(F)F)cc1` (racemic) [Example 312, rac-(3R*,5S*)-3-hydroxy-5-(2-methoxynaphthalen-1-yl)-1-(4-(trifluoromethoxy)benzyl)pyrrolidin-2-one], the concentration for half-maximal inhibition (IC50) turned out to be 826 nM on human orexin-2 receptor (setting [3]) and 2200 nM on human orexin-1 receptor (compound incubation 120 min).

In the case of `COc1c(F)ccc(F)c1[C@@H]1C[C@@H](O)C(=O)N1Cc1ccc(OC(F)(F)F)cc1` (racemic) [Example 313, rac-(3R*,5S*)-5-(3,6-difluoro-2-methoxyphenyl)-3-hydroxy-1-(4-(trifluoromethoxy)benzyl)pyrrolidin-2-one], the half-maximal inhibitory concentration (IC50) on human orexin-2 receptor (setting [3]) amounted to 1030 nM; at human orexin-1 receptor (compound incubation 120 min), 1460 nM.

Take `COc1ccc(Cl)c(OC)c1[C@@H]1C[C@@H](O)C(=O)N1Cc1ccc(OC(F)(F)F)cc1` (racemic) [Example 314, rac-(3R*,5S*)-5-(3-chloro-2,6-dimethoxyphenyl)-3-hydroxy-1-(4-(trifluoromethoxy)benzyl)pyrrolidin-2-one]: the IC50 was 920 nM on human orexin-2 receptor (setting [3]) and 1100 nM at human orexin-1 receptor (compound incubation 120 min).

For the molecule `COc1ccc2ccccc2c1[C@@H]1C[C@H](Cl)C(=O)N1Cc1ccc(OC(F)(F)F)cc1` (racemic) [Example 316, rac-(3S*,5S*)-3-chloro-5-(2-methoxynaphthalen-1-yl)-1-(4-(trifluoromethoxy)benzyl)pyrrolidin-2-one], the IC50 came out at 1040 nM at human orexin-2 receptor (setting [3]) and 329 nM on human orexin-1 receptor (compound incubation 120 min).

`COc1ccc(Cl)c(OC)c1[C@@H]1C[C@H](Cl)C(=O)N1Cc1ccc(OC(F)(F)F)cc1` (racemic) [Example 318, rac-(3S*,5S*)-3-chloro-5-(3-chloro-2,6-dimethoxyphenyl)-1-(4-(trifluoromethoxy)benzyl)pyrrolidin-2-one]: the IC50 came out at 444 nM at human orexin-2 receptor (setting [3]) and 167 nM on human orexin-1 receptor (compound incubation 120 min).

On to `COc1ccc(Cl)c(OC)c1[C@@H]1C[C@H](F)C(=O)N1Cc1ccc(OC(F)(F)F)cc1` (racemic) [Example 319, rac-(3S*,5S*)-5-(3-chloro-2,6-dimethoxyphenyl)-3-fluoro-1-(4-(trifluoromethoxy)benzyl)pyrrolidin-2-one], for which the IC50 was 1020 nM at human orexin-2 receptor (setting [3]) and 971 nM on human orexin-1 receptor (compound incubation 120 min).

`COc1cccc(F)c1[C@@H]1C[C@H](Cl)C(=O)N1Cc1ccc2oc3ccccc3c2c1` (racemic) [Example 408, rac-(3S*,5S*)-3-chloro-1-(dibenzo[b,d]furan-2-ylmethyl)-5-(2-fluoro-6-methoxyphenyl)pyrrolidin-2-one]: at human orexin-2 receptor (setting [3]), the IC50 amounted to 5 nM.

Take `COc1cccc(F)c1C1CCCC(=O)N1Cc1ccc(OC(F)(F)F)cc1` (stereo not shown) [Example 220, 6-(2-fluoro-6-methoxyphenyl)-1-(4-(trifluoromethoxy)benzyl)piperidin-2-one]: the IC50 at human orexin-2 receptor (setting [1]) came to 156 nM.

Turning to `CCOc1cccc(F)c1C1CC(C)C(=O)N1Cc1ccc(OC(F)(F)F)cc1` (stereo not shown) [Example 370, 5-(2-ethoxy-6-fluorophenyl)-3-methyl-1-(4-(trifluoromethoxy)benzyl)pyrrolidin-2-one], the IC50 at human orexin-2 receptor (setting [3]) is 30 nM.

As for `CCOc1cccc(F)c1C1CC(C)C(=O)N1Cc1ccc(OC(F)F)cc1` (stereo not shown) [Example 373, 1-(4-(difluoromethoxy)benzyl)-5-(2-ethoxy-6-fluorophenyl)-3-methylpyrrolidin-2-one], at human orexin-2 receptor (setting [3]), the IC50 is 65 nM.

Turning to `CCOc1cccc(CN2C(=O)C(C)CC2c2c(F)cccc2OCC)c1` (stereo not shown) [Example 376, 5-(2-ethoxy-6-fluorophenyl)-1-(3-ethoxybenzyl)-3-methylpyrrolidin-2-one], the IC50 at human orexin-2 receptor (setting [3]) worked out at 25 nM.

Consider `CCCOc1ccc(CN2C(=O)C(C)CC2c2c(F)cccc2OCC)cc1` (stereo not shown) [Example 377, 5-(2-ethoxy-6-fluorophenyl)-3-methyl-1-(4-propoxybenzyl)pyrrolidin-2-one], for which the half-inhibitory concentration (IC50) at human orexin-2 receptor amounted to 95 nM.

Regarding `CCCOc1cccc(F)c1C1CC(C)C(=O)N1Cc1ccc(OC(F)(F)F)cc1` (stereo not shown) [Example 415, 5-(2-fluoro-6-propoxyphenyl)-3-methyl-1-(4-(trifluoromethoxy)benzyl)pyrrolidin-2-one], the IC50 at human orexin-2 receptor (setting [3]) came out at 291 nM.
